# Data taken from US20130203635A1, “NUCLEIC ACID LIGATION METHOD” (priority 2012, published 2013).
# T1: Pyrococcus horikoshii Archease
# T1 chain: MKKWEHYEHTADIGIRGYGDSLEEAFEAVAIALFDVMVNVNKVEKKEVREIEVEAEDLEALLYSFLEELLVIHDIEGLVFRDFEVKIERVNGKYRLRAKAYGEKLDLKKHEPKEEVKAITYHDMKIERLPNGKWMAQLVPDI
# Columns and labels:
# [1] = tested on: Escherichia coli RtcB ligase; test: E. coli RtcB RNA ligation assay (3′-P and 5′-OH termini, urea-polyacrylamide gel); format: biochemical
# From the text: FIG. 1. […] (A) RNA ligation substrate that mimics a broken tRNA anti-codon. FAM label allows visualization in a urea-polyacrylamide gel. […] (B) Cofactor- and metal-dependence of ligation. Reactions contain manganese, except in the “—Mn^2+” lane. The lane labeled “C78A” is a ligation reaction performed with RtcB that has a C78A substitution within the predicted metal binding site. (C) Ligation assays using GTP analogues as cofactors. […] (E) RNA termini specificity of RtcB. Modifications to the ligatable ends of the tRNA mimic substrate were made as indicated and tested in ligation reactions.
# To assay for ligation, we initially used two single-stranded RNA (ssRNA) oligos that were each 10 nucleotides in length. The 5′ RNA fragment was labeled with 6-carboxyfluorescein (FAM) at its 5′ end and phosphorylated at its 3′ end. The 3′ RNA fragment had hydroxyl groups at each end. We intended to convert the 3′-P into a 2′,3′-cyclic phosphate by incubation with RtcA and ATP, so as to produce a suitable substrate for RtcB.
# These reactions were performed with high concentrations of GTP analogues to ensure saturation of RtcB.
# We investigated the RNA termini structure requirements for ligation by modifying the ends of our tRNA mimic substrate. First, all four combinations of either a phosphate or hydroxyl group at each termini were sampled while maintaining a 2′-OH on the 5′ side of the ligation junction. […] Next, the importance of the terminal ribose 2′-OH for ligation was probed by replacing this hydroxyl group with either hydrogen (2′-H) or fluorine (2′-F).
# P. horikoshii RtcB [2] = test: P. horikoshii RtcB RNA ligation assay; format: biochemical, Pyrococcus horikoshii; settings: Archease 0.25 μM, NTP 100 μM, RtcB 5 μM (FIG. 10B, 11B)
# From the text: FIG. 2. P. horikoshii RtcB catalyzed ligation of 3′-P and 5′-OH RNA termini. P. horikoshii RtcB requires Mn^2+ and GTP for ligation. […] The lane labeled “2′-deoxy” is a ligation reaction using the tRNA mimic substrate but with a 3′-P/2′-H termini on its 5′ fragment. The lane labeled “C98A” is a ligation reaction with RtcB that has a C98A substitution within the predicted metal-binding site.
# RtcB from the archaeal domain of life likewise catalyzes the GTP-dependent ligation of 3′-P and 5′-OH RNA termini. The crystal structure of RtcB from a hyperthermophilic archaeon, Pyrococcus horikoshii, was determined as part of a structural genomics project (21). […] The P. horikoshii homologue has 29% amino-acid sequence identity to E. coli RtcB, and 49% identity to the human ligase (HSPC117). To investigate if RtcB from archaea catalyzes the GTP-dependent ligation of 3′-P and 5′-OH RNA termini, we synthesized a P. horikoshii rtcB gene and produced soluble enzyme in E. coli. […] The P. horikoshii ligase also required a 2′-OH on the terminal nucleotide of the 5′ RNA fragment.
# RNA Ligation Assay. Ligation assays with single-stranded RNA as the substrate used two 10-nt oligonucleotides that were synthesized by Integrated DNA Technologies (15). […] The 3′ RNA fragment had hydroxyl groups on each end. The sequence of the 5′ fragment was FAM-5′-AAAUAACAAA-3′-P (SEQ ID NO:6) and the sequence of the 3′ RNA fragment was 5′-AAAUAACAAA-3′ (SEQ ID NO:6). Ligation reactions were performed in 10-μL solutions consisting of 50 mM Bis-Tris buffer, pH 7.0, containing NaCl (300 mM), […] (0.25 mM), GTP (100 μM), each RNA fragment (1 μM), and RtcB (10 μM). Reaction mixtures were incubated at 70° C. for 1 h prior to the addition of water (40 μL) and RNA-loading buffer (50 μL). Reaction mixtures were subjected to electrophoresis and visualized as previously described in the previous examples.
# The ability of Archease to activate P. horikoshii RtcB was tested in reactions using ssRNA substrates. Ligation reactions included a 10-nt 5′ RNA fragment and a 10-nt 3′ RNA fragment. […] The 3′ RNA fragment had hydroxyl groups on each end. The sequence of the 5′ fragment was FAM-5′-AAAUAACAAA-3′-P (SEQ ID NO:6) and the sequence of the 3′ RNA fragment was 5′-AAAUAACAAA-3′ (SEQ ID NO:6). Ligation reactions were performed in 50-μL solutions consisting of 50 mM Tris-HCl buffer, pH 7.4, containing NaCl (300 mM), MnCl2 (0.25 mM), GTP (100 μM), RNA fragments (100 pmol of each), and P. horikoshii RtcB (5 μM).
# Ligation reaction mixtures were set up as described above, and each was divided into two tubes. No Archease was added to one set of reaction mixtures (FIG. 10A), and Archease was added to a concentration of 0.25 μM to the other set (FIG. 10B). […] Archease had no effect on ligation reactions that used 2′-F RNA.
# We tested the ability of Archease to enable RtcB to use cofactors other than GTP or dGTP. Ligation reaction mixtures with RtcB were set up as described above, and each was divided into two tubes. No Archease was added to one set of reaction mixtures (FIG. 11A), and Archease was added to a concentration of 0.25 μM to the other set (FIG. 11B). The various NTPs were included at a concentration of 100 μM.
# human RtcA = human RtcA (Homo sapiens, UniProt O00442); settings: read-out: ATP KM; cited from earlier work
# Sequence of human RtcA (O00442 whole entry): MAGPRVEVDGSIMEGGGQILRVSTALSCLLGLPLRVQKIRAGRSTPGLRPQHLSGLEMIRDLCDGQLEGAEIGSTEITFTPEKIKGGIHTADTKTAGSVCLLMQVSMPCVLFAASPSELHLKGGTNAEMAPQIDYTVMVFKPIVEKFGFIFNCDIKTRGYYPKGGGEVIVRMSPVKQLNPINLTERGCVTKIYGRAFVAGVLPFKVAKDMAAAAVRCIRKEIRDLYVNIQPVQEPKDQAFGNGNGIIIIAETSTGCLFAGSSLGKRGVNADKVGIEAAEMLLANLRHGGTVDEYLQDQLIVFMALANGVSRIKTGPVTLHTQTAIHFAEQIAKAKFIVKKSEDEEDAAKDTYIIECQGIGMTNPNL
# E. coli RtcA = E. coli RtcA (Escherichia coli, UniProt P46849); settings: read-out: ATP KM; cited from earlier work
# Sequence of E. coli RtcA (P46849 whole entry): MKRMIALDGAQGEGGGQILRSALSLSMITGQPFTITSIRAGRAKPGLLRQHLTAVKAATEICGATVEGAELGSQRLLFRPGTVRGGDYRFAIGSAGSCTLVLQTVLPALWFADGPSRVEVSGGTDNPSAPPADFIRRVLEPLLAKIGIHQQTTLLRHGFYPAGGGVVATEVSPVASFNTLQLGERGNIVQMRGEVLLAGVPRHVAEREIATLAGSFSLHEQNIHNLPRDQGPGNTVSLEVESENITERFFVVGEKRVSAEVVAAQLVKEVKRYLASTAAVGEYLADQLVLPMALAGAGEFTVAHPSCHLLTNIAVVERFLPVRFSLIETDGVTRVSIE
# P. horikoshii RtcB [3] = test: 14C-labeled GTP binding assay; set-up: species or system Pyrococcus horikoshii
# Protocol: Structure of the RtcB-Histidine-GMP Covalent Intermediate. To determine the optimal reaction conditions that enable formation of the RtcB-GMP covalent intermediate, ^14C-labeled GTP binding studies were performed (7). […] Under these conditions, the maximal GMP:RtcB molar ratio was determined to be (0.76±0.02):1. No binding of GTP to RtcB was detected in the absence of Mn(II). Using these reaction conditions, we formed the RtcB-GMP intermediate and removed unbound Mn(II), GTP, and PPi by gel-filtration chromatography. The protein was concentrated to 200 μM, and crystals of this complex diffracted to a resolution of 2.4 Å.
# ^14C-labeled GTP Binding Assays. […] Absorbance readings at A260 and A280 were obtained for each fraction. The protein fractions have high A280 readings, whereas the fractions with free GTP have higher A260 readings. In fractions containing protein, the RtcB concentrations were calculated from the A280 reading using an extinction coefficient of 62,340 M^−1 cm^−1 (ExPASy). The concentration of [8-^14C]GTP in the protein fractions was determined by liquid scintillation counting. Each 0.5-mL fraction was mixed with 3.5 mL of Ultima Gold MV liquid scintillation cocktail (Perkin Elmer) in a 4-mL vial, and counts were read on a MicroBeta TriLux liquid scintillation counter (Perkin Elmer). […] Under these conditions, the GTP:RtcB molar ratio was determined to be (0.76±0.02):1. […]
# [4] = biological target: T1, Pyrococcus horikoshii Archease
Molecule,"use as cofactor in ligation of 3′-P and 5′-OH RNA termini ([1]; in place of GTP, tRNA anticodon stem-loop mimic substrate, with Mn2+ (FIG. 1B, 1C))",use as cofactor in RNA ligation with Archease (P. horikoshii RtcB [2]),Km (human RtcA) [µM],Km (E. coli RtcA) [µM],"Km ([1]; titration with GTP, tRNA mimic substrate (FIG. 1D)) [µM]","maximal GMP:RtcB (GTP:RtcB) molar ratio (P. horikoshii RtcB [3]; RtcB 100 μM, GTP 1 mM, MnCl2 2 mM, 70° C. for 45 min)",binding of GTP to RtcB (P. horikoshii RtcB [3]; in the absence of Mn(II)),RNA ligation (urea-polyacrylamide gel of FAM-labeled ssRNA substrate and product) [4]
"Nc1ncnc2c1ncn2[C@@H]1O[C@H](COP(=O)(O)OP(=O)(O)OP(=O)(O)O)[C@@H](O)[C@H]1O [ATP, adenosine-5′-triphosphate]",unable to substitute for GTP,enables RtcB to use ATP,6,20,–,–,–,–
"Nc1nc2c(ncn2[C@@H]2O[C@H](COP(=O)(O)OP(=O)(O)OP(=O)(O)O)[C@@H](O)[C@H]2O)c(=O)[nH]1 [GTP, guanosine-5′-triphosphate]",–,selectively activated,–,–,< 16,0.76±0.02,No binding,–
"Pyrococcus horikoshii 2',3'-cyclic phosphate RNA ligase (RtcB) (protein) MVVPLKRIDKIRWEIPKFDKRMRVPGRVYADEVLLEKMKNDRTLEQATNVAMLPGIYKYSIVMPDGHQGYGFPIGGVAAFDVKEGVISPGGIGYDINCGVRLIRTNLTEKEVRPRIKQLVDTLFKNVPSGVGSQGRIKLHWTQIDDVLVDGAKWAVDNGYGWERDLERLEEGGRMEGADPEAVSQRAKQRGAPQLGSLGSGNHFLEVQVVDKIFDPEVAKAYGLFEGQVVVMVHTGSRGLGHQVASDYLRIMERAIRKYRIPWPDRELVSVPFQSEEGQRYFSAMKAAANFAWANRQMITHWVRESFQEVFKQDPEGDLGMDIVYDVAHNIGKVEEHEVDGKRVKVIVHRKGATRAFPPGHEAVPRLYRDVGQPVLIPGSMGTASYILAGTEGAMKETFGSTCHGAGRVLSRKAATRQYRGDRIRQELLNRGIYVRAASMRVVAEEAPGAYKNVDNVVKVVSEAGIAKLVARMRPIGVAKG",–,–,–,–,–,–,–,the addition of Archease at concentrations that are lower than that of RtcB or RNA enhanced catalysis of RNA ligation
